Consider 19 compounds from patent US5093332A, “Substituted thieno(2,3-B)(1,4)thiazine-6-sulfonamides as antiglaucoma agents” (priority 1990, dated 1992).

Structures are written as SMILES. Counter-ions that a name gives are not always drawn. Like-named read-outs stand apart in the source and are kept apart here. A value given as a limit tells only on which side of the number the result lay.

The term Ki denotes a dissociation constant, usually derived from enzyme kinetics or from competition with a known ligand. As a reminder, the IC50 is the concentration that inhibits the measured activity by half.

The conditions of data set [1]: background statement; cited from earlier work.
The conditions of data set [2]: background statement; cited from earlier work. This is another data set of the same source.
The target in data set [3] is T1, human carbonic anhydrase II (Homo sapiens, UniProt P00918). Description: Carbonic Anhydrase Binding Assay.
Data set [4] concerns the target T1, human carbonic anhydrase II. Description: Carbonic Anhydrase Inhibition Assay. Format: biochemical.
The mark [5] stands for this setting: in vitro binding for human carbonic anhydrase II, read-out: Ki.
Setting [6] is: in vitro inhibition of human carbonic anhydrase II, read-out: IC50.

With `CC(C)(C)NC[C@H](O)COc1nsnc1N1CCOCC1` [(S)-1-tert-Butylamino-3-[(4-morpholino-1,2-5-thiadiazol-3-yl)ox-yl]-2-propanol], in data set [1], the duration of activity entry was “long duration of activity”, the local anesthetic properties entry was “devoid of local anesthetic properties” and the tolerance result is reported as “minimal tolerance”. Besides, the reduce intraocular pressure result in data set [2] is given as “found to reduce intraocular pressure”.

With `NS(=O)(=O)c1cc2c(s1)SCC(=O)N2` [Example 1, 2,3-Dihydro-2-oxo-6-sulfamoyl-1H-thieno[2,3-b][1,4]thiazine], the Ki in data set [3] (setting [5]) was less than 10 µM. Further, the IC50 in data set [4] (setting [6]) was less than 10 µM.

For `NS(=O)(=O)c1cc2c(s1)SC(CC(=O)O)C(=O)N2` (centres unmarked) [Example 2, (2,3-Dihydro-2-oxo-6-sulfamoyl-1H-thieno[2,3-b][1,4]thiazin-3-yl)acetic Acid], the Ki in data set [3] (setting [5]) is less than 10 µM. Moreover, the IC50 in data set [4] (setting [6]) is less than 10 µM.

For the compound `NS(=O)(=O)c1cc2c(s1)S(=O)(=O)CC(=O)N2` [Example 4, 2,3-Dihydro-6-sulfamoyl-2,4,4-trioxo-1H-thieno[2,3-b][1,4]thiazine], the Ki in data set [3] is less than 10 µM. The same compound had an IC50 in data set [4] of less than 10 µM.

`NS(=O)(=O)c1cc2c(s1)S(=O)(=O)C(CC(=O)O)C(=O)N2` (centres unmarked) [Example 5, (2,3-Dihydro-2,4,4-trioxo-6-sulfamoyl-1H-thieno[2,3-b][1,4]thiazin-3-yl)acetic acid]: the Ki in data set [3] (setting [5]) was less than 10 µM. In data set [4] (setting [6]), the IC50 was less than 10 µM.

For the compound `NS(=O)(=O)c1cc2c(s1)S(=O)(=O)CCN2` [Example 6, 2,3-Dihydro-4,4-dioxo-6-sulfamoyl-1H-thieno[2,3-b][1,4]thiazine], the Ki in data set [3] (setting [5]) is less than 10 µM. For the same compound, in data set [4] (setting [6]), the IC50 was less than 10 µM.

Turning to `NS(=O)(=O)c1cc2c(s1)S(=O)(=O)CC(=S)N2` [Example 8, 2,3-Dihydro-4,4-dioxo-6-sulfamoyl-2-thiono-1H-thieno[2,3-b][1,4]thiazine], the Ki in data set [3] (setting [5]) was less than 10 µM. Besides, in data set [4] (setting [6]), the IC50 was less than 10 µM.

On to `NS(=O)(=O)c1cc2c(s1)S(=O)(=O)C(CCO)CN2` (centres unmarked) [Example 10, 3-(2-Hydroxyethyl)-2,3-dihydro-4,4-dioxo-6-sulfamoyl-1H-thieno[2,3-b][1,4]thiazine], for which the Ki in data set [3] (setting [5]) is less than 10 µM. Also, the 50% inhibitory concentration (IC50) in data set [4] (setting [6]) is less than 10 µM.

With `COC(=O)CC1C(=O)Nc2cc(S(N)(=O)=O)sc2S1(=O)=O` (centres unmarked) [Example 11, Methyl (2,3-Dihydro-2,4,4-trioxo-6-sulfamoyl-1H-thieno[2,3-b][1,4]thiazin-3-yl)acetate], the Ki in data set [3] (setting [5]) is less than 10 µM. Moreover, the IC50 in data set [4] (setting [6]) was less than 10 µM.

Take `COC(=O)CC1Sc2sc(S(N)(=O)=O)cc2NC1=O` (centres unmarked) [Example 12, Methyl (2,3-Dihydro-2-oxo-6-sulfamoyl-1H-thieno[2,3-b][1,4]thiazin-3-yl)acetate]: in data set [3] (setting [5]), the Ki was less than 10 µM. The IC50 in data set [4] (setting [6]) was less than 10 µM.

Consider `NNC(=O)CC1C(=O)Nc2cc(S(N)(=O)=O)sc2S1(=O)=O` (centres unmarked) [Example 13, (2,3-Dihydro-6-sulfamoyl-2,4,4-trioxo-1H-thieno[2,3-b][1,4]thiazin-3-yl)acetic Acid Hydrazide], for which the Ki in data set [3] (setting [5]) is less than 10 µM. Moreover, in data set [4] (setting [6]), the IC50 was less than 10 µM.

Regarding `CCOC(=O)NCC1C(=O)Nc2cc(S(N)(=O)=O)sc2S1(=O)=O` (centres unmarked) [Example 14, 2,3-Dihydro-3-ethoxycarbonylaminomethyl-2,4,4-trioxo-6-sulfamoyl-1H-thieno[2,3-b][1,4]thiazine], in data set [3] (setting [5]), the Ki was less than 10 µM. For the same compound, the IC50 in data set [4] (setting [6]) is less than 10 µM.

With `COCCOCCN(CCOC)C(=O)CC1C(=O)Nc2cc(S(N)(=O)=O)sc2S1(=O)=O` (centres unmarked) [Example 16, N-Methoxyethoxyethyl-N-methoxyethyl(2,3-dihydro-2,4,4-trioxo-6-sulfamoyl-1H-thieno[2,3-b][1,4]thiazin-3-yl)acetamide], the Ki in data set [3] (setting [5]) was less than 10 µM. Further, the IC50 in data set [4] (setting [6]) is less than 10 µM.

On to `COCCOCCN(CCOC)CCC1C(=O)Nc2cc(S(N)(=O)=O)sc2S1(=O)=O` (centres unmarked) [Example 17, 3-[2-(N-Methoxyethoxyethyl-N-methoxyethylamino)ethyl]-2,3-dihydro-2,4,4-trioxo-6-sulfamoyl-1H-thieno[2,3-b][1,4]thiazine], for which, in data set [3] (setting [5]), the Ki was less than 10 µM. Besides, the IC50 in data set [4] (setting [6]) was less than 10 µM.

Turning to `CC(C)CNCCC1CNc2cc(S(N)(=O)=O)sc2S1(=O)=O` (centres unmarked) [Example 18, 3-(2-Isobutylaminoethyl)-2,3-dihydro-4,4-dioxo-6-sulfamoyl-1H-thieno[2,3-b][1,4]thiazine Hydrochloride], the Ki in data set [3] (setting [5]) is less than 10 µM. Moreover, the IC50 in data set [4] (setting [6]) is less than 10 µM.

As to `COCCN(CCOC)CCC1CNc2cc(S(N)(=O)=O)sc2S1(=O)=O` (centres unmarked) [Example 19, 3-[2-Bis-(2-methoxyethyl)aminoethyl]-2,3-dihydro-4,4-dioxo-6-sulfamoyl-1H-thieno[2,3-b][1,4]thiazine Hydrochloride], in data set [3], the inhibitory constant (Ki) is less than 10 µM. Also, the IC50 in data set [4] is less than 10 µM.

With `COCCOCCN(CCOC)CCC1CNc2cc(S(N)(=O)=O)sc2S1(=O)=O` (centres unmarked) [Example 20, 3-[2-(N-Methoxyethoxyethyl-N-methoxyethylamino)ethyl]-2,3-dihydro-4,4-dioxo-6-sulfamoyl-1H-thieno[2,3-b][1,4]thiazine Hydrochloride], the Ki in data set [3] (setting [5]) is less than 10 µM. In addition, the IC50 in data set [4] (setting [6]) was less than 10 µM.

As for `CNC(=O)Oc1ccc2c(c1)[C@]1(C)CCN(C)[C@@H]1N2C` [physostigmine], in data set [2], the reduce intraocular pressure entry is on record as “reduce intraocular pressure”.

`CC[C@@H]1C(=O)OC[C@@H]1Cc1cncn1C` [pilocarpine]: in data set [2], the reduce intraocular pressure result was “reduce intraocular pressure”.
